Assays:
[1] = molecular target: Sodium-dependent dopamine transporter (Rattus norvegicus, UniProt P23977); test: Inhibition of [3H]DA reuptake at dopamine transporter in rat striatum; format: tissue-based
[2] = molecular target: Norepinephrine transporter (Rattus norvegicus, UniProt Q9WTR4); test: Inhibition of [3H]-NE reuptake at Norepinephrine transporter in rat parietal/occipital cortex
[3] = molecular target: Sodium-dependent serotonin transporter (Rattus norvegicus, UniProt P31652); test: Inhibition of [3H]5-HT reuptake at serotonin transporter in rat mid brain
Sodium-dependent serotonin transporter, sequence (P31652 whole entry): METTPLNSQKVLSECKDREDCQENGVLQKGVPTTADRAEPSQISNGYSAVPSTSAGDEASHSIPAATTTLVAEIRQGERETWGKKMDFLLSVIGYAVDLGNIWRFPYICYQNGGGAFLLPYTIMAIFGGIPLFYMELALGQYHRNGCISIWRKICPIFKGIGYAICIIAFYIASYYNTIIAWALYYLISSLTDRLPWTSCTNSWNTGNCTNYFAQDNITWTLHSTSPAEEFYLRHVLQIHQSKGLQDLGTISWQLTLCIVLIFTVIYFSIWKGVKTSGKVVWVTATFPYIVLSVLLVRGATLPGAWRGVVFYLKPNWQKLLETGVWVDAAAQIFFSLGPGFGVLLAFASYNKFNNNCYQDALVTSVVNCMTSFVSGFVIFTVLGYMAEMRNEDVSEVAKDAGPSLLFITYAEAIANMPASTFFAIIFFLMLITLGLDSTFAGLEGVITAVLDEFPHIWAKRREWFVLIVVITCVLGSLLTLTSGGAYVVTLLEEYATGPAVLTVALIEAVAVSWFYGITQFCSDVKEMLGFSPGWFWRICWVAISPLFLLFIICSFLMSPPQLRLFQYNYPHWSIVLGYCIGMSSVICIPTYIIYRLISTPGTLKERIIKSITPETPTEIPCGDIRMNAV

[4] = molecular target: Monoamine transporters; Norepinephrine & serotonin (Rattus norvegicus) (UniProt P31652+Q9WTR4); test: Relative reuptake inhibition at norepinephrine and serotonin transporters; format: protein assay

Norepinephrine transporter, sequence (Q9WTR4 whole entry): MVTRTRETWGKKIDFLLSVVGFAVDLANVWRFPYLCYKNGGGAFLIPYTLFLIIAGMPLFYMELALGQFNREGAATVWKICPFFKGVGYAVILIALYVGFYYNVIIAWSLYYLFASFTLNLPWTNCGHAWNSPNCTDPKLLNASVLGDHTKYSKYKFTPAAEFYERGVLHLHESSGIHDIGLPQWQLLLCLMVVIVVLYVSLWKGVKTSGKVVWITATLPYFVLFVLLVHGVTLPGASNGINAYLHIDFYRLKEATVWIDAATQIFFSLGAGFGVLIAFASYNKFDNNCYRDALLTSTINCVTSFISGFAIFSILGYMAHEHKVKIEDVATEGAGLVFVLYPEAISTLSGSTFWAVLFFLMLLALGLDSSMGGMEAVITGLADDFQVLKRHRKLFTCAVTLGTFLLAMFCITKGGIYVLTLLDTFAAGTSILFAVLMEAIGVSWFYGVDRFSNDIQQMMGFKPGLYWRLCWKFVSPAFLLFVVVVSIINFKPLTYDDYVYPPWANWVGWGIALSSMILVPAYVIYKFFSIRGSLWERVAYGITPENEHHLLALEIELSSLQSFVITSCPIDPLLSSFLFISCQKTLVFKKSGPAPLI
Sodium-dependent dopamine transporter, sequence (P23977 whole entry): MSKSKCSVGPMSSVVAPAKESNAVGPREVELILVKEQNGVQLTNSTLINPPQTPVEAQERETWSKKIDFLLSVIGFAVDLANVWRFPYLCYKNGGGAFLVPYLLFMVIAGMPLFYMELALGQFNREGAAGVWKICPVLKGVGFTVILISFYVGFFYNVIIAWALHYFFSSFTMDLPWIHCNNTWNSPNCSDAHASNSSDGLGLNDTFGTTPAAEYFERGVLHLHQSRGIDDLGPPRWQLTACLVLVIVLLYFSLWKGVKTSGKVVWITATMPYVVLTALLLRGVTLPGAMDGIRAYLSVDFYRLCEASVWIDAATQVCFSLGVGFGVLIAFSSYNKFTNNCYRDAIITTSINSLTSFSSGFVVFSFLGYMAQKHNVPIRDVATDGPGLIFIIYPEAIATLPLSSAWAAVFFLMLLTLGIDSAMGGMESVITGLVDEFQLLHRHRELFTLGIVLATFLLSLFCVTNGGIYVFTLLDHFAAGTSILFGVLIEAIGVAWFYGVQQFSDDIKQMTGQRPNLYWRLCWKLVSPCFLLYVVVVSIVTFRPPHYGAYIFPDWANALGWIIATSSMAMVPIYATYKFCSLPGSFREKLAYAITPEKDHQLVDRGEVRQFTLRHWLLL

| SMILES | Ki [1] [nM] | Ki [2] [nM] | Ki [3] [nM] | Ratio [4] |
| --- | --- | --- | --- | --- |
| OCC1C2CC3CCC1N3C/C2=C\c1cccs1 (stereo unspecified) | ~3000 | ~300 | ~1000 | 0.3 |
| COC(=O)C1C2CC3CCC1N3C/C2=C\c1ccc(C)s1 (stereo unspecified) | 403 | 4.9 | 179 | – |
| CC(C)OC(=O)C1C2CC3CCC1N3C/C2=C\c1cccs1 (stereo unspecified) | 428 | 52.3 | 1150 | – |
| O=C(OCC1C2CC3CCC1N3C/C2=C\c1ccc(I)c(Cl)c1)c1ccccc1 (stereo unspecified) | – | – | 0.06 | – |
| CC(C)(C)C(=O)OCC1C2CC3CCC1N3C/C2=C\c1cccs1 (stereo unspecified) | 1020 | 1180 | 168 | – |
| COC(=O)C1C2CC3CCC1N3C/C2=C\c1ccc(I)s1 (stereo unspecified) | 368 | 5 | 29 | – |
| CC(=O)NCC1C2CC3CCC1N3C/C2=C\c1cccs1 (stereo unspecified) | 6140 | 2430 | 13300 | – |
| CC(C)(C)OC(=O)NCC1C2CC3CCC1N3C/C2=C\c1cccs1 (stereo unspecified) | 2300 | 1700 | 2360 | – |
| O=C(OCC1C2CC3CCC1N3C/C2=C\c1cccs1)c1ccccc1 (stereo unspecified) | 1750 | 894 | 1.53 | – |
| CC(=O)OCC1C2CC3CCC1N3C/C2=C\c1cccs1 (stereo unspecified) | 610 | 283 | 1530 | – |
| O=C(OCC1C2CC3CCC1N3C/C2=C\c1cccs1)c1ccc2ccccc2c1 (stereo unspecified) | 1680 | 1230 | 169 | – |
| O=C(OCC1C2CC3CCC1N3C/C2=C\c1ccc(I)cc1)c1ccccc1 (stereo unspecified) | – | – | 0.1 | – |
| COC(=O)C1C2CC3CCC1N3C/C2=C\c1cccs1 (stereo unspecified) | 268 | 26.4 | 2050 | – |

From ChEMBL document CHEMBL1135278, “Thiophene derivatives: a new series of potent norepinephrine and serotonin reuptake inhibitors” (Bioorg Med Chem Lett, 2002)
